{"source": "patent US20040171691A1", "about": "“Propofol with cysteine” (Transform Pharmaceuticals, Inc., priority 2002, published 2004)", "system": "microorganisms", "assay": "Antimicrobial effectiveness, overall conclusion over the four USP test organisms", "assay_type": "cell-based", "conditions": "after adventitious, extrinsic contamination", "text": "Tables 2 through 5 compare the antimicrobial effectiveness of the cysteinate HCl formulation with that of Diprivan® and generic propofol formulation, as well as unpreserved Intralipid®."}
{"smiles": "Cl.N[C@@H](CS)C(=O)O", "note": "[cysteine/cysteinate HCl, Cysteine HCl]", "values": [{"measurement": "time for which significant growth of microorganisms is prevented", "value": "at least 24 hours"}]}
